Test results as given in the supplement of paper PMC10307832.

Columns and labels:
Assay in all cases: relative viability (nuclei count vs DMSO), 5 days (fraction); higher = more cells survive
[1] = compound: CC(C)=CC[C@@H](O)C1=CC(=O)c2c(O)ccc(O)c2C1=O [Shikonin] + N=C(N)NC(=N)NCCc1ccccc1 [Phenformin] (partner 250 µM)
How it was run: (§1)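 A single step with final 0.05% Triton X-100, 1% formaldehyde and 1 ug/ml Hoechst fixed the cells and stained nuclei 5 days after treatment. Lung cancer cell lines in 1536-well plates had been treated by pin tool the day after seeding with one drug alone or a fixed anchor-drug dose plus five library-drug doses (not always all listed) in √10 steps, and nuclei were counted on 4× images. Relative viability is the ratio of nuclei in treated wells to nuclei in vehicle wells, taken as the median of duplicate plates.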

[2] = compound: CC(C)N(CCCNC(=O)Nc1ccc(C(C)(C)C)cc1)C[C@H]1O[C@@H](n2ccc3c(N)ncnc32)[C@H](O)[C@@H]1O + CCNC(=O)c1noc(-c2cc(C(C)C)c(O)cc2O)c1-c1ccc(CN2CCOCC2)cc1 [Luminespib] (partner 0.01 µM)
How it was run: as §1

[3] = compound: CC(C)N(CCCNC(=O)Nc1ccc(C(C)(C)C)cc1)C[C@H]1O[C@@H](n2ccc3c(N)ncnc32)[C@H](O)[C@@H]1O + Cc1nc(NC(=O)N2CCC[C@H]2C(N)=O)sc1-c1ccnc(C(C)(C)C(F)(F)F)c1 [Alpelisib] (partner 2 µM)
How it was run: as §1

[4] = compound: CC(C)=CC[C@@H](O)C1=CC(=O)c2c(O)ccc(O)c2C1=O [Shikonin] + CC1(C)CCC(c2ccc(Cl)cc2)=C(CN2CCN(c3ccc(C(=O)NS(=O)(=O)c4ccc(N[C@H](CCN5CCOCC5)CSc5ccccc5)c(S(=O)(=O)C(F)(F)F)c4)cc3)CC2)C1 [Navitoclax] (partner 0.5 µM)
How it was run: as §1

With SW 1573 the relative viability ([1]; first compound 0.01 µM) was 0.389, the relative viability ([1]; first compound 0.1 µM) was 0.388 and the relative viability ([1]; first compound 0.3162 µM) was 0.325. The relative viability ([1]; first compound 1 µM) was 0.122, the relative viability ([2]; first compound 0.08 µM) was 0.348 and the relative viability ([2]; first compound 0.8 µM) was 0.356. The relative viability ([2]; first compound 2.53 µM) was 0.172, the relative viability ([2]; first compound 8 µM) was 0.194 and the relative viability ([3]; first compound 0.08 µM) was 0.771. The relative viability ([3]; first compound 0.253 µM) was 0.708, the relative viability ([3]; first compound 0.8 µM) was 0.734 and the relative viability ([3]; first compound 2.53 µM) was 0.949. The relative viability ([3]; first compound 8 µM) was 0.667, the relative viability ([4]; first compound 0.01 µM) was 1.2 and the relative viability ([4]; first compound 0.1 µM) was 1.13. It also gave a relative viability ([4]; first compound 0.3162 µM) of 1.01 and a relative viability ([4]; first compound 1 µM) of 0.869.
